Test results: patent US11214803B2, “Modulators of YAP1 expression” (Ionis Pharmaceuticals, Inc., priority 2019, dated 2022)
Strand notation (5' to 3'): a small letter for the sugar, then the base; units joined by * are phosphorothioate-linked, units joined directly phosphodiester-linked; [ ] holds rarer units or linkages, { } end groups; capitals alone tell only the bases. k = constrained ethyl (cEt); [5mC] = 5-methylcytosine; d = 2'-deoxy (DNA)

System: Yap1 mRNA
Assay: Antisense inhibition of human Yap1 in A-431 cells by cEt gapmers, single dose (Example 3, RTS36584)
Assay type: cell-based
Procedure, shortened: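 Free uptake, 2,000 nM, ~48 h, A-431 cells. Gapmers: 16-mer 3-10-3 cEt wings, PS backbone, 5-MeC. Readout qRT-PCR, RiboGreen-normalized, % UTC.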

[1] = Table 29, Yap1 mRNA as percent of untreated control, 3-10-3 cEt gapmers targeting SEQ ID NO.: 1, and 2
[2] = Table 9, A-431 cells, 5,000 cells per well, free uptake, 2,000 nM, approximately 48 hours, RTS36584, normalized to RIBOGREEN, Yap1 mRNA relative to untreated control cells
[3] = Table 27, Yap1 mRNA by 3-10-3 cEt gapmers targeting SEQ ID NO.: 1, and 2, percent of untreated control
[4] = Table 10, A-431 cells, 5,000 cells per well, free uptake, 2,000 nM oligonucleotide, approx. 48 hours, primer probe set RTS36584, Yap1 mRNA normalized to RIBOGREEN, percent of untreated control
[5] = Table 12, A-431 cells, 5,000 cells per well, free uptake, 2,000 nM modified oligonucleotide, approx. 48 hours, RTS36584, normalized to RIBOGREEN, Yap1 mRNA relative to untreated control cells
[6] = Table 34, Yap1 mRNA as percent of untreated control, 3-10-3 cEt gapmers targeting SEQ ID NO: 1 and 2, single dose
[7] = Table 11, A-431 cells, 5,000 cells per well, free uptake, 2,000 nM oligonucleotide, approx. 48 hours, primer probe set RTS36584, Yap1 mRNA normalized to RIBOGREEN, percent of untreated control
[8] = Table 13, A-431 cells, 5,000 cells per well, free uptake, 2,000 nM modified oligonucleotide, approx. 48 hours, RTS36584, normalized to RIBOGREEN, Yap1 mRNA relative to untreated control cells
[9] = Table 35, Yap1 mRNA as percent of untreated control, 3-10-3 cEt gapmers targeting SEQ ID NO: 1 and 2, single dose
[10] = Table 26, Yap1 mRNA by 3-10-3 cEt gapmers targeting SEQ ID NO.: 1, and 2, percent of untreated control
[11] = Table 8, A-431 cells, 5,000 cells per well, free uptake, 2,000 nM, approximately 48 hours, RTS36584, normalized to RIBOGREEN, Yap1 mRNA relative to untreated control cells
[12] = Table 28, Yap1 mRNA as percent of untreated control, 3-10-3 cEt gapmers targeting SEQ ID NO.: 1, and 2

## 1075919 (antisense kT*k[5mC]*kT*dT*dA*dA*dA*d[5mC]*dT*dA*dA*d[5mC]*dT*kG*kT*kT) [compound 1075919]
[1]
  YAP1 (% UTC): 78 % UTC

## 958606 (antisense kT*k[5mC]*k[5mC]*dA*d[5mC]*d[5mC]*dT*dG*dA*dG*d[5mC]*dA*d[5mC]*kT*k[5mC]*kA) [Compound 958606]
[2]
  YAP1 (% UTC): 31 % UTC

## 1074893 (antisense kG*k[5mC]*kT*dG*dA*dA*dG*dT*dT*dT*dA*dG*d[5mC]*k[5mC]*kT*kG) [compound 1074893]
[3]
  YAP1 (% UTC): 78 % UTC

## 958682 (k[5mC]*k[5mC]*kA*dT*dG*dA*dG*dG*dG*dA*d[5mC]*dT*d[5mC]*k[5mC]*k[5mC]*kA; antisense) [Compound 958682]
[4]
  YAP1 (% UTC): 123 % UTC

## 1074735 (kG*kA*kT*d[5mC]*dA*dA*dA*dG*d[5mC]*dA*d[5mC]*dT*dG*kT*kG*k[5mC]; antisense) [compound 1074735]
[1]
  YAP1 (% UTC): 117 % UTC

## 958629 (antisense k[5mC]*k[5mC]*k[5mC]*dG*dA*dG*dT*dG*dG*dG*d[5mC]*dT*dA*kA*k[5mC]*kT) [Compound 958629]
[5]
  YAP1 (% UTC): 128 % UTC

## 1075476 (kT*k[5mC]*kT*dT*dA*dT*d[5mC]*d[5mC]*dT*dA*d[5mC]*dA*dG*k[5mC]*kT*kT; antisense) [compound 1075476]
[6]
  YAP1 (% UTC): 75 % UTC

## 958468 (antisense kT*kT*kG*dG*dT*dG*dG*d[5mC]*dA*dG*d[5mC]*d[5mC]*dA*kA*kA*kA) [Compound 958468]
[7]
  YAP1 (% UTC): 86 % UTC

## 958449 (antisense k[5mC]*k[5mC]*kG*dG*dA*d[5mC]*dG*dG*d[5mC]*dG*dG*dG*d[5mC]*k[5mC]*k[5mC]*kT) [Compound 958449]
[5]
  YAP1 (% UTC): 84 % UTC

## 958604 (kA*k[5mC]*kG*d[5mC]*dT*dA*dG*dA*dA*dA*dA*dG*dT*kG*kT*kT; antisense) [Compound 958604]
[5]
  YAP1 (% UTC): 94 % UTC

## 958795 (antisense kT*kA*kT*dT*d[5mC]*d[5mC]*dG*d[5mC]*dA*dT*dT*dG*d[5mC]*k[5mC]*kT*kA) [Compound 958795]
[8]
  YAP1 (% UTC): 8 % UTC

## 1076495 (kG*kA*kT*dT*dA*dG*dT*dG*dA*dA*dA*dA*dT*kT*k[5mC]*k[5mC]; antisense) [compound 1076495]
[1]
  YAP1 (% UTC): 30 % UTC

## 1075733 (k[5mC]*kA*kA*dT*dA*dA*d[5mC]*d[5mC]*dT*d[5mC]*dG*dA*dG*kT*kG*k[5mC]; antisense) [compound 1075733]
[9]
  YAP1 (% UTC): 28 % UTC

## 1075215 (kA*kA*kA*d[5mC]*dA*dA*dT*dA*dA*dA*dG*dG*dG*kT*k[5mC]*k[5mC]; antisense) [compound 1075215]
[1]
  YAP1 (% UTC): 44 % UTC

## 958610 (antisense kA*kG*kG*dT*dA*dA*d[5mC]*dA*dT*dT*dG*dG*dT*kA*k[5mC]*kT) [Compound 958610]
[8]
  YAP1 (% UTC): 34 % UTC

## 958570 (kT*kG*kT*dA*dA*dT*dT*d[5mC]*dA*dT*dA*dT*dA*k[5mC]*k[5mC]*k[5mC]; antisense) [Compound 958570]
[8]
  YAP1 (% UTC): 5 % UTC

## 958512 (k[5mC]*kA*kT*dT*d[5mC]*d[5mC]*dA*d[5mC]*dT*dA*d[5mC]*d[5mC]*dA*k[5mC]*kA*k[5mC]; antisense) [Compound 958512]
[4]
  YAP1 (% UTC): 14 % UTC

## 958740 (antisense k[5mC]*kG*kG*d[5mC]*dA*d[5mC]*d[5mC]*dA*dA*dA*d[5mC]*dA*d[5mC]*k[5mC]*k[5mC]*kA) [Compound 958740]
[8]
  YAP1 (% UTC): 57 % UTC

## 1074412 (k[5mC]*kT*kG*dT*dG*dA*dA*dA*dG*dA*dG*dG*dT*k[5mC]*kA*kG; antisense) [compound 1074412]
[10]
  YAP1 (% UTC): 55 % UTC

## 958349 (k[5mC]*k[5mC]*kG*dA*dG*dT*d[5mC]*d[5mC]*d[5mC]*d[5mC]*dG*d[5mC]*dG*kG*kA*k[5mC]; antisense) [Compound 958349]
[11]
  YAP1 (% UTC): 81 % UTC

## 958506 (kG*k[5mC]*kA*dG*dA*dT*dA*dA*dT*d[5mC]*dG*dA*dG*kA*kT*kT; antisense) [Compound 958506]
[2]
  YAP1 (% UTC): 6 % UTC

## 1075822 (k[5mC]*kT*kT*dA*dG*dT*dA*dA*dT*dT*dG*d[5mC]*d[5mC]*k[5mC]*kA*kT; antisense) [compound 1075822]
[12]
  YAP1 (% UTC): 35 % UTC

## 958422 (antisense kT*kT*kT*d[5mC]*dT*dT*dA*dA*d[5mC]*d[5mC]*dA*dG*d[5mC]*kG*kG*kA) [Compound 958422]
[11]
  YAP1 (% UTC): 15 % UTC

## 1075212 (k[5mC]*kA*kA*dT*dA*dA*dA*dG*dG*dG*dT*d[5mC]*d[5mC]*kT*kA*kA; antisense) [compound 1075212]
[10]
  YAP1 (% UTC): 76 % UTC

## 958538 (kA*kT*k[5mC]*d[5mC]*dA*dG*dG*dG*dT*d[5mC]*dA*dA*dT*kT*kT*kT; antisense) [Compound 958538]
[7]
  YAP1 (% UTC): 10 % UTC

## 958541 (kG*kT*kA*dT*dT*d[5mC]*dT*dA*dT*d[5mC]*d[5mC]*dA*dG*kG*kG*kT; antisense) [Compound 958541]
[2]
  YAP1 (% UTC): 4 % UTC

## 958420 (antisense kT*kT*k[5mC]*dA*dT*dA*dA*dT*d[5mC]*dT*dG*dA*d[5mC]*kT*kA*kG) [Compound 958420]
[11]
  YAP1 (% UTC): 66 % UTC

## 958729 (antisense kG*kT*k[5mC]*dA*dG*dT*dT*dA*dT*d[5mC]*d[5mC]*dT*dA*kT*k[5mC]*kT) [Compound 958729]
[5]
  YAP1 (% UTC): 4 % UTC

## 958621 (antisense kA*kA*k[5mC]*dG*dA*dG*dG*dG*dT*d[5mC]*dA*dA*dG*k[5mC]*k[5mC]*kT) [Compound 958621]
[2]
  YAP1 (% UTC): 29 % UTC

## 958680 (kA*kT*kT*dA*dA*d[5mC]*dA*d[5mC]*d[5mC]*dT*dG*dA*dG*k[5mC]*kT*kG; antisense) [Compound 958680]
[8]
  YAP1 (% UTC): 50 % UTC

## 1076239 (kG*kT*kT*dT*dA*dA*dA*dA*dA*dA*dA*dA*d[5mC]*kG*kG*kG; antisense) [compound 1076239]
[1]
  YAP1 (% UTC): 75 % UTC

## 958597 (k[5mC]*k[5mC]*k[5mC]*dA*dA*dT*dA*d[5mC]*dA*dA*d[5mC]*d[5mC]*dA*kA*kG*kA; antisense) [Compound 958597]
[4]
  YAP1 (% UTC): 6 % UTC

## 1074415 (kG*k[5mC]*k[5mC]*dA*dA*d[5mC]*dT*dG*dT*dG*dA*dA*dA*kG*kA*kG; antisense) [compound 1074415]
[1]
  YAP1 (% UTC): 10 % UTC

## 1075445 (antisense kT*kA*kT*dA*dA*dA*dT*d[5mC]*d[5mC]*dT*d[5mC]*dA*dT*kG*kT*kG) [compound 1075445]
[9]
  YAP1 (% UTC): 84 % UTC

## 1076206 (k[5mC]*kA*kA*dT*dA*dA*dA*d[5mC]*dT*dT*dA*d[5mC]*d[5mC]*k[5mC]*kT*kT; antisense) [compound 1076206]
[12]
  YAP1 (% UTC): 55 % UTC

## 1075956 (kT*kA*kT*dA*dA*dA*dG*d[5mC]*dA*dA*dT*dG*d[5mC]*kG*kA*kT; antisense) [compound 1075956]
[6]
  YAP1 (% UTC): 27 % UTC

## 1075284 (antisense k[5mC]*kT*kT*dT*dT*d[5mC]*dG*dA*dA*dT*dA*dT*dA*kG*kA*kA) [compound 1075284]
[6]
  YAP1 (% UTC): 76 % UTC

## 1074605 (DNA kT*k[5mC]*kA*dA*d[5mC]*dT*dA*d[5mC]*d[5mC]*dA*dA*dT*dA*kT*kA*k[5mC]) [compound 1074605]
[3]
  YAP1 (% UTC): 20 % UTC

## 1076558 (kG*k[5mC]*k[5mC]*dA*dA*dA*dT*dA*dT*dT*dT*dA*dA*k[5mC]*kT*k[5mC]; antisense) [compound 1076558]
[12]
  YAP1 (% UTC): 30 % UTC

## 1075380 (antisense kA*k[5mC]*kT*dA*dA*dA*dA*d[5mC]*dT*dG*dA*d[5mC]*dT*kG*kT*k[5mC]) [compound 1075380]
[6]
  YAP1 (% UTC): 94 % UTC

## 1075156 (kA*kT*kT*dA*dT*dA*dT*dG*dA*d[5mC]*dT*d[5mC]*dT*kG*k[5mC]*kT; antisense) [compound 1075156]
[6]
  YAP1 (% UTC): 22 % UTC

## 1075085 (antisense kT*kG*k[5mC]*dG*dG*dA*dA*dA*d[5mC]*dA*dA*dG*dT*kG*kT*kA) [compound 1075085]
[3]
  YAP1 (% UTC): 11 % UTC

## 1074734 (kT*kG*k[5mC]*d[5mC]*dA*dG*dG*dT*dA*dT*d[5mC]*dA*d[5mC]*kA*kG*kT; antisense) [compound 1074734]
[12]
  YAP1 (% UTC): 51 % UTC

## 1075534 (kA*k[5mC]*k[5mC]*d[5mC]*dA*dA*dG*dG*dA*d[5mC]*dA*dG*d[5mC]*kA*k[5mC]*kA; antisense) [compound 1075534]
[12]
  YAP1 (% UTC): 53 % UTC

## 958614 (antisense kG*kT*k[5mC]*dT*dT*dG*dT*dT*d[5mC]*dT*dT*dA*dT*kG*kG*kT) [Compound 958614]
[5]
  YAP1 (% UTC): 6 % UTC

## 1074316 (antisense kG*kG*kA*dT*dT*dG*dA*dT*dA*dT*dT*d[5mC]*d[5mC]*kG*k[5mC]*kA) [compound 1074316]
[10]
  YAP1 (% UTC): 33 % UTC
